From ChEMBL document CHEMBL1141176, “Quantitative structure-activity relationship (5D-QSAR) study of combretastatin-like analogues as inhibitors of tubulin assembly” (J Med Chem, 2005) come the findings set out here.

Tubulin beta-1 chain, sequence (Q9H4B7 whole entry): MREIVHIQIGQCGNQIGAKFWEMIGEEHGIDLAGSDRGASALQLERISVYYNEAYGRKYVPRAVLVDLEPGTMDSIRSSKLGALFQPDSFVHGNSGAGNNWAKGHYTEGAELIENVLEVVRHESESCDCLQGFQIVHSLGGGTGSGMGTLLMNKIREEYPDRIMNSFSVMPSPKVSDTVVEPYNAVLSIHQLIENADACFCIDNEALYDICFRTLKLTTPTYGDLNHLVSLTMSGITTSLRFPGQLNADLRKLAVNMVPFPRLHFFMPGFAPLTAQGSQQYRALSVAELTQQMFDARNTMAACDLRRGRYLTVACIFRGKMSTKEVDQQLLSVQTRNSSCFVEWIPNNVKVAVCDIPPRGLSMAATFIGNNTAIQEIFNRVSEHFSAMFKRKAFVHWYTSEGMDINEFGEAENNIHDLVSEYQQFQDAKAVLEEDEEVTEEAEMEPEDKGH

This assay has as its target Tubulin beta-1 chain (Homo sapiens, UniProt Q9H4B7). The experiment in a line: Concentration required for 50% inhibition of tubulin polymerization.
By IC50 is commonly meant the concentration that gives 50% inhibition. A low value points to inhibition by little substance. As for `COc1ccc(COc2cc(OC)c(OC)c(OC)c2)cc1O`, the midpoint of inhibition, the IC50, lay at 7.2 µM.
The result for `COc1ccc(/C=C\c2ccccc2)cc1O` reads 2.5 µM; that for `COc1ccc(/C=C\c2cc(C)c(C)c(C)c2)cc1F`, 0.7 µM.
As for `CCOc1cc(/C=C\c2ccc(OC)c(F)c2)cc(OCC)c1OCC`, the figure is 1.2 µM.
As for `COc1ccc(/C=C\c2ccc(C)c(C)c2)cc1O`, the figure is 3.1 µM.
`COc1ccc(/C=C\c2cc(C)c(C)c(C)c2)cc1` came in with an IC50 of 0.65 µM.
For the compound `COc1ccc(/C=C(/C)c2cc(OC)c(OC)c(OC)c2)cc1O`, the IC50 stood at 0.13 µM.
As for `COc1ccc(Oc2cc(OC)c(OC)c(OC)c2)cc1O`, the figure is 11 µM.
The compound `COc1ccc(/C=C/C(=O)c2ccc(OC)c(OC)c2OC)cc1O` came in with an IC50 of 0.45 µM.
Compound `COc1ccc(OCc2cc(OC)c(OC)c(OC)c2)cc1C=O` registered an IC50 of 0.56 µM.
As for `COc1ccc(OCc2cc(OC)c(OC)c(OC)c2)cc1O`, the figure is 21 µM.
Regarding `COc1ccc(/C=C\c2cc(C)c(C)c(C)c2)cc1O`, the IC50 was found to be 0.12 µM.
The result for `CO/C(=C\c1cc(F)c(OC)c(F)c1)C(=O)c1cc(OC)c(OC)c(OC)c1` reads 1.7 µM; that for `COc1ccc(Nc2cc(OC)c(OC)c(OC)c2)cc1O`, above 100 µM.
As for `COc1cc(C(=O)/C=C/c2cc(F)c(OC)c(F)c2)cc(OC)c1OC`, the figure is 12 µM; as for `COc1ccc(/C=C(\C)C(O)c2cc(OC)c(OC)c(OC)c2)cc1O` (stereo not given), above 10 µM.
`COc1ccc(/C=C(/C)c2cc(OC)c(OC)c(OC)c2)cc1` gave an IC50 of 1.3 µM.
`CCOc1cc(/C=C\c2ccc(OC)c(O)c2)cc(OCC)c1OCC` showed an IC50 of 0.5 µM.
In turn, `CO/C(=C\c1ccc(OC)c(F)c1)C(=O)c1cc(OC)c(OC)c(OC)c1` displayed an IC50 of 0.47 µM.
The compound `COc1ccc(C(=O)/C=C/c2cc(O)c(O)c(O)c2)c(OC)c1OC` yielded an IC50 above 100 µM.
In the case of `COc1ccc(/C=C/C(=O)c2cc(OC)c(OC)c(OC)c2)cc1O`, 0.62 µM corresponded to half-maximal inhibition (IC50).
The result for `COc1ccc(COc2cc(OC)c(OC)c(OC)c2)cc1OCC(O)CO` (stereo not given) reads above 100 µM.
As for `CCc1ccc(/C=C\c2cc(OC)c(OC)c(OC)c2)cc1`, the figure is 3.4 µM; as for `COc1ccc(/C=C\c2ccc(C)c(C)c2)cc1F`, 6.6 µM.
The result for `COc1ccc(/C=C\c2cc(O)c(OC)c(OC)c2)cc1F` reads 1.25 µM.
Compound `COc1ccc(C(=O)/C=C/c2cc(F)c(OC)c(F)c2)c(OC)c1OC` had a 50% inhibitory concentration (IC50) of 31 µM.
As for `COc1ccc(CC(C)C(=O)c2cc(OC)c(OC)c(OC)c2)cc1O` (stereo not given), the figure is 4 µM; as for `COc1ccc(/C=C\c2cc(F)c(F)c(F)c2)cc1O`, 4.5 µM.
The compound `COc1ccc(OCc2cc(OC)c(OC)c(OC)c2)cc1CO` displayed an IC50 above 100 µM.
In turn, `COc1ccc(/C=C\c2cc(F)c(F)c(F)c2)cc1F` returned an IC50 of 5.5 µM.
As for `COc1ccc(/C=C/C(=O)c2ccc(OC)c(OC)c2OC)cc1F`, the figure is 7.9 µM.
Compound `COc1ccc(/C(C)=C/c2cc(OC)c(OC)c(OC)c2)cc1O` yielded an IC50 of 9 µM.
`COc1ccc(/C=C/C(=O)c2cc(OC)c(OC)c(OC)c2)cc1N` had an IC50 of 2 µM.
As for `COc1ccc(COc2cc(OC)c(OC)c(OC)c2)cc1OCC=O`, the figure is 41 µM; as for `CO/C(=C\c1ccc(OC)c(O)c1)C(=O)c1cc(OC)c(OC)c(OC)c1`, 0.51 µM.
`COc1ccc(/C=C(\C)C(=O)c2cc(OC)c(OC)c(OC)c2)cc1O` displayed a 50% inhibitory concentration (IC50) of 0.46 µM.
For `COc1ccc(OC)c(C(=O)/C(C)=C/c2ccc(N(C)C)cc2)c1`, the midpoint of inhibition, the IC50, lay at 10 µM.
With `CC/C(=C/c1ccc(OC)c(O)c1)c1cc(OC)c(OC)c(OC)c1`, inhibition was half-maximal at 0.13 µM (IC50).
The result for `COc1ccc(/C=C\c2cc(OC)c(OC)c(OC)c2)cc1` reads 0.2 µM.
The compound `COc1ccc(/C=C/C(=O)c2cc(OC)c(OC)c(OC)c2)cc1F` came in with an IC50 of 1.2 µM.
The result for `COc1ccc(/C=C(\C)C(=O)c2cc(OC)c(OC)c(OC)c2)cc1[N+](=O)[O-]` reads above 10 µM; that for `COc1cc(C(=O)/C(C)=C/c2cc(F)c(OC)c(F)c2)cc(OC)c1OC`, 2.4 µM.
The result for `COc1cc(/C=C\c2ccc(C)c(C)c2)cc(OC)c1OC` reads 2 µM; that for `COc1cc(C(=O)/C=C/c2ccc(O)c(O)c2)cc(OC)c1OC`, above 100 µM.
As for `COc1ccc(/C=C(\C)C(=O)c2cc(OC)c(OC)c(OC)c2)cc1F`, the figure is 0.65 µM.
